Experimental data as given in patent US20140094414A1, “COMPOSITION FOR PREVENTING OR TREATING NEURODEGENERATIVE DISEASE INCLUDING BIOACTIVE PEPTIDE AS EFFECTIVE COMPONENT” (PUKYONG NATIONAL UNIVERSITY INDUSTRY-UNIVERSITY CO, priority 2012, published 2014).
No end group written: not given here.

Assays:
[1] = tested on: BV2 cells, murine microglia; experiment: Cytotoxicity, MTT assay in BV2 cells; type: cell-based; conditions: for cytotoxicity in BV2 cell: 10, 50, 100 μM, 24 and 48 hours
Method: Cytoprotective effect was determined by MTT reduction assay. […] After incubations for 24 hours and 48 hours, the incubated cells were washed with PBS, 100 μl of MTT (0.5 mg/ml final concentration) was added to each wells, and incubation was continued for another 4 hours for a reduction of MTT. […] Relative cell viability was calculated as a percentage compared with the absorbance of the untreated control group.

[2] = tested on: PC12 cells co-cultured with BV2 cells; experiment: Co-culture of Aβ42-activated BV2 cells and PC12 cells, MTT assay; conditions: 100 μM peptide, 48 hours, 5 uM Aβ42
Method: For the co-culture of microglia and PC12 cells, which has been employed to assess the neurotoxin effect of activated microglia, microglia was first seeded onto cell culture inserts (pore size of 0.2 μm; SPL, Korea). After overnight incubation, microglia were left untreated or exposed 5 uM Aβ42 in the presence or absence of peptides for 24 h. Afterwards, the microglial cells were co-cultured with PC12 cells by transferring the culture inserts containing microglia onto PC12 cell monolayers (see FIG. 15).
In order to confirm cell viability of co-cultured PC12 cell, MTT assay was performed.

NO = NO production, Griess reaction in Aβ42-stimulated BV2 cells; type: cell-based, murine; conditions: stimulation with Aβ42 alone (control), 1 μM 48 h
Method: NO levels in the cultured BV2 cells' supernatants were measured by the Griess reaction. In brief, BV2 cells were pre incubated overnight in 24-well plates using DMEM without phenol red at a density 2×10^5 cells/ml, followed by the treatment with the HIP-1 peptide of the present invention having various concentrations (10, 50, 100 μM) as a sample for 6 h. After 6 h, the NO production was stimulated by adding Aβ42 (1 μM final concentration) and incubated for further 48 h. Then 50 μl of culture supernatants from each samples was mixed with the same volume of the Griess reagent [1% sulfanilamide/0.1% N-1-naphthyl]-ethylenediamine dihydrochloride/2.5% phosphoric acid] following the incubation for 15 min. Absorbance values were read at 540 nm using ELISA microplate reader (Tecan GmbH, Austria). Blank was not treated, and control was activated BV2 cells by exposing Aβ42 without the HIP-1 peptide of the present invention.

[3] = tested on: nerve cells-differentiated PC12 cells
Method: The present inventors induced a nerve toxin in PC12 cells by differentiating PC12 cells into nerve cells through treating with NGF, and then treating to the differentiated PC12 cells with 20 μM of Aβ42 for 24 hours.
Cytoprotective effect was determined by MTT reduction assay. […] After incubation for 24 hours, 100 μl of MTT (1 mg/ml final concentration) was added to each of wells and incubation was continued for another 4 hours. MTT is used as an indicator of cell viability through its mitochondrial reduction to formazan. Mitochondrial succinate dehydrogenase in live cells converts MTT into visible formazan crystals during incubation. The formazan crystals were then solubilized in DMSO and the absorbance was measured at 540 nm by using enzyme-linked immunosorbent assay (ELISA) microplate reader (Tecan GmbH, Austria). Relative cell viability was calculated compared with the absorbance of the untreated control group.

Row | Substance | cytotoxicity in BV2 cell [1] | cell viability of PC12 cells co-cultured with BV2 cells [2] [%] | toxicity of Aβ42 in BV2 cells ([1]; Aβ42 0.1, 0.5, 1, 5, 10 μM) | production of NO (NO) [µM] | cell viability of nerve cell-differentiated PC12 cells ([3]; 10 μM Aβ42, FIG. 2) | PC12 cell viability ([3]; 20 μM Aβ42 for 24 h)
1 | FLHDVQ [HTP-2, FLHDVQ] | did not exhibit cytotoxicity | 75.19±2.55 | – | – | – | –
2 | GTEDELDK [HTP-1] | did not exhibit cytotoxicity | 82.49±3.05 | – | – | – | –
3 | amyloid-beta 42 [Aβ42] | – | – | no toxicities | 24.59 ± 2.54 | greatly decreased | reduction
